{"source": "ChEMBL document CHEMBL1201862", "about": "“PubChem BioAssay data set” (2004)", "assay_in_all_cases": "inhibition of tumour cell growth, NCI panel, 48 h", "key": {"Malme-3M": {"test_system": "Malme-3M"}, "HCC 2998": {"test_system": "HCC 2998"}, "SF-539": {"test_system": "SF-539"}, "A549": {"test_system": "A549"}, "SF-295": {"test_system": "SF-295"}, "HOP-18": {"test_system": "HOP-18"}, "KM-20L2": {"test_system": "KM-20L2"}, "HCT-116": {"test_system": "HCT-116"}, "CAKI-1": {"test_system": "CAKI-1"}, "SN12C": {"test_system": "SN12C"}, "UO-31": {"test_system": "UO-31"}, "HCT-15": {"test_system": "HCT-15"}, "DMS-114": {"test_system": "DMS-114"}, "M14": {"test_system": "M14"}, "DLD-1": {"test_system": "DLD-1"}, "SK-MEL-2": {"test_system": "SK-MEL-2"}, "HL-60": {"test_system": "HL-60"}, "ACHN": {"test_system": "ACHN"}, "SNB-78": {"test_system": "SNB-78"}, "UACC-257": {"test_system": "UACC-257"}, "SF-268": {"test_system": "SF-268"}, "HOP-62": {"test_system": "HOP-62"}, "KM12": {"test_system": "KM12"}, "OVCAR-3": {"test_system": "OVCAR-3"}, "A498": {"test_system": "A498"}, "SW-620": {"test_system": "SW-620"}, "NCI-H23": {"test_system": "NCI-H23"}, "TK-10": {"test_system": "TK-10"}, "HT-29": {"test_system": "HT-29"}, "OVCAR-8": {"test_system": "OVCAR-8"}, "NCI-H226": {"test_system": "NCI-H226"}, "786-0": {"test_system": "786-0"}, "DMS-273": {"test_system": "DMS-273"}, "LXFL 529": {"test_system": "LXFL 529"}, "MOLT-4": {"test_system": "MOLT-4"}, "OVCAR-4": {"test_system": "OVCAR-4"}, "IGROV-1": {"test_system": "IGROV-1"}, "SNB-19": {"test_system": "SNB-19"}, "HOP-92": {"test_system": "HOP-92"}, "SK-OV-3": {"test_system": "SK-OV-3"}, "CCRF-CEM": {"test_system": "CCRF-CEM"}, "UACC-62": {"test_system": "UACC-62"}, "M19-MEL": {"test_system": "M19-MEL"}, "NCI-H522": {"test_system": "NCI-H522"}, "U-251": {"test_system": "U-251"}, "SK-MEL-5": {"test_system": "SK-MEL-5"}, "EKVX": {"test_system": "EKVX"}, "OVCAR-5": {"test_system": "OVCAR-5"}, "K562": {"test_system": "K562"}, "XF498": {"test_system": "XF498"}, "SR": {"test_system": "SR"}, "COLO 205": {"test_system": "COLO 205"}, "RPMI-8226": {"test_system": "RPMI-8226"}, "NCI-H460": {"test_system": "NCI-H460"}, "LOX IMVI": {"test_system": "LOX IMVI"}, "SK-MEL-28": {"test_system": "SK-MEL-28"}, "SNB-75": {"test_system": "SNB-75"}}, "note": "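Dose response: 5 concentrations. Exposure: 48 h. Format: 96-well plates. Endpoint: linear interpolation; highest concentration if not reached. Abbreviation: GI50, concentration required for 50% inhibition of growth.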 The source made the active and inactive calls. Cut-off read from the data, not from the text of the source: active = GI50 up to about 1.1 µM and inactive = higher.", "data": [{"smiles": "CCOP(=O)(OCC)OC(C#N)c1ccc(-c2ccccc2)cc1", "note": "(configuration not stated)", "values": [{"measurement": "GI50", "setting": "Malme-3M", "value": "19.6 µM (inactive)"}, {"measurement": "GI50", "setting": "HCC 2998", "value": "28.5 µM (inactive)"}, {"measurement": "GI50", "setting": "SF-539", "value": "20.8 µM (inactive)"}, {"measurement": "GI50", "setting": "A549", "value": "18.4 µM (inactive)"}, {"measurement": "GI50", "setting": "SF-295", "value": "70.6 µM (inactive)"}, {"measurement": "GI50", "setting": "HOP-18", "value": "27.7 µM (inactive)"}, {"measurement": "GI50", "setting": "KM-20L2", "value": "41.3 µM (inactive)"}, {"measurement": "GI50", "setting": "HCT-116", "value": "15.2 µM (inactive)"}, {"measurement": "GI50", "setting": "CAKI-1", "value": "22.4 µM (inactive)"}, {"measurement": "GI50", "setting": "SN12C", "value": "19 µM (inactive)"}, {"measurement": "GI50", "setting": "UO-31", "value": "47.3 µM (inactive)"}, {"measurement": "GI50", "setting": "HCT-15", "value": 18, "unit": "µM"}, {"measurement": "GI50", "setting": "DMS-114", "value": "15 µM (inactive)"}, {"measurement": "GI50", "setting": "M14", "value": "18.4 µM (inactive)"}, {"measurement": "GI50", "setting": "DLD-1", "value": "18.4 µM (inactive)"}, {"measurement": "GI50", "setting": "SK-MEL-2", "value": "36.3 µM (inactive)"}, {"measurement": "GI50", "setting": "HL-60", "value": "18.4 µM (inactive)"}, {"measurement": "GI50", "setting": "ACHN", "value": "33 µM (inactive)"}, {"measurement": "GI50", "setting": "SNB-78", "value": "33 µM (inactive)"}, {"measurement": "GI50", "setting": "UACC-257", "value": "20.8 µM (inactive)"}, {"measurement": "GI50", "setting": "SF-268", "value": "18.2 µM (inactive)"}, {"measurement": "GI50", "setting": "HOP-62", "value": "34.5 µM (inactive)"}, {"measurement": "GI50", "setting": "KM12", "value": "18.2 µM (inactive)"}, {"measurement": "GI50", "setting": "OVCAR-3", "value": "19.1 µM (inactive)"}, {"measurement": "GI50", "setting": "A498", "value": "24.2 µM (inactive)"}, {"measurement": "GI50", "setting": "SW-620", "value": "13.7 µM (inactive)"}, {"measurement": "GI50", "setting": "NCI-H23", "value": "27 µM (inactive)"}, {"measurement": "GI50", "setting": "TK-10", "value": "30.5 µM (inactive)"}, {"measurement": "GI50", "setting": "HT-29", "value": "17.9 µM (inactive)"}, {"measurement": "GI50", "setting": "OVCAR-8", "value": "19.5 µM (inactive)"}, {"measurement": "GI50", "setting": "NCI-H226", "value": "31.6 µM (inactive)"}, {"measurement": "GI50", "setting": "786-0", "value": "16.9 µM (inactive)"}, {"measurement": "GI50", "setting": "DMS-273", "value": "14.4 µM (inactive)"}, {"measurement": "GI50", "setting": "LXFL 529", "value": "17.8 µM (inactive)"}, {"measurement": "GI50", "setting": "MOLT-4", "value": "14.2 µM (inactive)"}, {"measurement": "GI50", "setting": "OVCAR-4", "value": "21.1 µM (inactive)"}, {"measurement": "GI50", "setting": "IGROV-1", "value": "36.3 µM (inactive)"}, {"measurement": "GI50", "setting": "SNB-19", "value": "73.1 µM (inactive)"}, {"measurement": "GI50", "setting": "HOP-92", "value": "14.4 µM (inactive)"}, {"measurement": "GI50", "setting": "SK-OV-3", "value": "28.4 µM (inactive)"}, {"measurement": "GI50", "setting": "CCRF-CEM", "value": "22.4 µM (inactive)"}, {"measurement": "GI50", "setting": "UACC-62", "value": "13.9 µM (inactive)"}, {"measurement": "GI50", "setting": "M19-MEL", "value": "21.9 µM (inactive)"}, {"measurement": "GI50", "setting": "NCI-H522", "value": "14.9 µM (inactive)"}, {"measurement": "GI50", "setting": "U-251", "value": "15.2 µM (inactive)"}, {"measurement": "GI50", "setting": "SK-MEL-5", "value": "16 µM (inactive)"}, {"measurement": "GI50", "setting": "EKVX", "value": "49 µM (inactive)"}, {"measurement": "GI50", "setting": "OVCAR-5", "value": "54.1 µM (inactive)"}, {"measurement": "GI50", "setting": "K562", "value": "20.3 µM (inactive)"}, {"measurement": "GI50", "setting": "XF498", "value": "23.9 µM (inactive)"}, {"measurement": "GI50", "setting": "SR", "value": "30 µM (inactive)"}, {"measurement": "GI50", "setting": "COLO 205", "value": "18.2 µM (inactive)"}, {"measurement": "GI50", "setting": "RPMI-8226", "value": "20.7 µM (inactive)"}, {"measurement": "GI50", "setting": "NCI-H460", "value": "20.5 µM (inactive)"}, {"measurement": "GI50", "setting": "LOX IMVI", "value": "13.7 µM (inactive)"}, {"measurement": "GI50", "setting": "SK-MEL-28", "value": "31.4 µM (inactive)"}, {"measurement": "GI50", "setting": "SNB-75", "value": "27.7 µM (inactive)"}]}]}
